Reference: patent US9993002B2, “1,2,3-thiadiazol-5yl-urea derivatives, use thereof for regulating plant senescence and preparations containing these derivatives” (USTAV EXPERIMENTALNI BOTANIKY AV CR, V.V.I., priority 2014, dated 2018)
Read-outs that look alike come from different tables or passages of the source.

Key:
[1] = system: detached leaf segments of Triticum aestivum cv. Hereward; assay: Senescence bioassay on wheat leaf segments in dark conditions; details: Triticum aestivum, foliar, 96 h, read-out: Senescence bioassay (IC50)
Protocol: (§1) Seeds of winter wheat, Triticum aestivum cv. Hereward, were washed under running water for 24 hours and then sown on perlite soaked with Hogland's solution. They were placed in the growth chamber at 25° C. with a 16/8 h light period at 50 μmol·m^−2·s^−1. After 7 days, the first leaf was fully developed and the second leaf had started to grow. A tip section of the first leaf, approximately 4 cm long, was removed from 4 seedlings and trimmed slightly to a combined weight of 100 mg. The basal ends of the four leaf tips were placed into the 96-wells plate containing 150 μL of the tested derivative solution each. The entire plate was inserted into a plastic box lined with paper tissues soaked in distilled water to prevent leaf sections from drying out. After 96 h incubation in the dark at 25° C., the leaves were removed and chlorophyll extracted by heating at 80° C. for 10 min in 5 mL of 80% ethanol (v/v). The sample volume was then restored to 5 mL by the addition of 80% ethanol (v/v). The absorbance of the extract was recorded at 665 nm. In addition, chlorophyll extracts from fresh leaves and leaf tips incubated in deionised water were measured. The results are means of five replicates and the entire test was repeated at least twice. […] The compounds to be tested were dissolved in dimethylsulfoxide (DMSO) and the solution brought up to 10^−3 M with distilled water. […] The IC50 values were determined for standard (BAP) and novel tested compounds.

[2] = system: Arabidopsis thaliana (wild-type Col-0); assay: Root growth and lateral root formation of Arabidopsis; format: in vivo; details: 10 nM, two weeks after transfer
Protocol: To investigate in vivo effect of the new derivatives on the root growth and development, seeds of Arabidopsis thaliana (wild-type Col-0) were surface sterilized and sown on vertical plates on half-strength Murashige-Skoog medium (supplied with 0.1% sucrose and 6 g/L phytagel) containing 10 nM BAP or 10 nM 1,2,3-thiadiazol-5-yl-urea derivative, or 0.01% DMSO (solvent control). After vernalization (4 days in the dark, 4° C.) plates were transferred into the growth chamber (22° C., 16/8 light/dark). Two weeks after transfer, seedlings were photographed and root elongation and lateral root formation was scored using Scion image software (Scion Corp., Frederick, Md., USA). At least 40 plants were measured for each treatment.

wheat leaves = assay: Ethylene production (defoliating activity) assay; set-up: species or system Triticum aestivum; details: 10 μM; for Ethylene produced: 96 h in the dark at 25° C., control 270 (±15)
Protocol: We investigated the effect of the compounds of the invention on ethylene production in wheat leaves. The leaves were obtained as described in Example 8, placed in 5 mL glass vials and immersed at 10 μM solutions of tested compounds of the invention or TDZ. Distilled water was used as a control treatment. After 96 h incubation in the dark at 25° C., 1 mL of air was taken from the vials and content of ethylene in it was determined using gas chromatography with the flame ionization detector (GC-FID) method described by Fišerová et al. (Fišerová H, Kula E, Klemš M, Reinöhl V (2001) Phytohormones as indicators of the degree of damage in birch (Betula pendula). Biológia 56: 405-409).

[3] = Toxicity towards human skin fibroblasts (Calcein AM assay); format: cell-based
Protocol: Cytotoxicity of the compounds to human skin fibroblasts (BJ cell line) was determined in a standard Calceinovém AM test. Cells were maintained in plastic tissue culture flasks and grown in Dulbecco's modified Eagle's medium for cell culture (DMEM) at 37° C. in 5% CO2 and 100% humidity. Cells were placed into 96-well microtiter plates (Nunc, Denmark) and after 12 hours pre-incubation, the tested compound was added to a final concentration ranging from […]. Cells were incubated for 72 hours. At the end of incubation period Calcein AM was added in PBS to a final concentration of […]. After 1 hour of incubation fluorescence was measured at 485/538 nm (ex/em wavelength) using Fluoroskan Ascent (Labsystems, Finland). IC50 values (the concentration causing reduction of calcein AM conversion to 50%) were calculated from the curves obtained. All experiments were repeated four times with a maximum deviation of 15%. Due to the limited solubility of substances in water, all the tested compounds were dissolved in DMSO and diluted with water to a final concentration.

[4] = system: detached leaf segments of Triticum aestivum cv. Hereward; assay: Senescence bioassay on wheat leaf segments in dark/light conditions; details: foliar, 168 h, read-out: Senescence bioassay (IC50)
Protocol: as §1
The ability of the novel compounds to retard chlorophyll degradation in detached wheat leaves was tested also in the light conditions. The experiment was performed as described in Example 7 with modifications as follows—the incubation of the leaves with the compounds was done in the dark/light conditions 8/16 (light—100 μmol·m^−2·s^−1) at 22° C. for 7 days. […] The newly prepared substituted 1,2,3-thiadiazol-5-yl urea derivatives of the invention are much stronger anti-senescent compounds in comparison to the BAP in retarding senescence under optimal (dark/light) conditions.

[5] = system: detached leaves of Triticum aestivum cv. Hereward; assay: Membrane lipid peroxidation (MDA, TBA method) in detached wheat leaves in the dark; details: for MDA: four days in the dark
Protocol: A typical symptom associated with senescence as a direct consequence of increased reactive oxygen species is membrane lipid peroxidation which produces malondialdehyde (MDA). Therefore the levels of MDA, a decomposition product of lipid peroxidation, were measured in detached wheat leaves that were exposed to the prepared novel derivatives or BAP for four days in the dark as described in Example 7. MDA levels were measured using a thiobarbituric acid (TBA) method. In detail, 100 mg of fresh plant material was homogenized by high speed shaking in a ball mill (MM301, Retsch, Germany) with 1 mL of 70% methanol. The crude extract was centrifuged at 10,000×g for 5 min, and 100 μL aliquot of supernatant was vortexed with 100 μL of 0.5% (w/v) TBA containing 0.1% (w/v) trichloroacetic acid, and the resulting solution was then incubated for 30 min at 95° C. The samples were quickly cooled on ice and centrifuged for 5 min at 1000 g. The absorbance of supernatant was measured at 532 nm with background subtraction at 600 nm and the amount of MDA-TBA complex was calculated from the coefficient of absorbance 155 mM^−1 cm^−1.

[6] = dark, 25° C., chlorophyll absorbance 665 nm
[7] = dark/light 8/16, 22° C., 7 days

SMILES | IC50 [1] [nM] | Lateral root number [2] | Primary root lenght [2] | Ethylene produced (wheat leaves) | CC50 at 72 h ([3]; BJ cell line, 72 hours, read-out: not toxic up to the highest tested concentration (Calcein AM IC50)) [nM] | IC50 [4] [nM] | MDA [5] | IC50 [1, 6] [nM] | CC50 at 72 h [3] [nM] | IC50 [4, 7] [nM] | level of membrane lipid peroxidation during dark senescence reduced to ([5]; compared to untreated control) [%] | elevation of ethylene production compared to untreated control (wheat leaves; 96 h) [%]
O=C(NCCCl)Nc1cnns1 [Compound 65, 1-(2-Chloro-ethyl)-3-[1,2,3]thiadiazol-5-yl-urea] | 14000 | 12 (±8) | 36 (±8) mm | 335 (±25) nL/g FW | > 100000 | 700 | 16.4 (±0.5) nmol/g FW |  |  |  |  | 
COCCNC(=O)Nc1cnns1 [Compound 6, 1-(2-methoxy-ethyl)-3-[1,2,3]thiadiazol-5-yl-urea] |  | 17 (±9) | 48 (±15) mm | 275 (±14) nL/g FW |  |  | 9.6 (±0.7) nmol/g FW | 950 | > 100000 | 30 | 44.6 | 
O=C(NCc1ccco1)Nc1cnns1 [Compound 84, N-furfuryl-N′-1,2,3-thiadiazol-5-yl-urea] |  | 13 (±6) | 30 (±6) mm | 337 (±28) nL/g FW |  |  | 12.7 (±1.1) nmol/g FW | 1200 | > 100000 | 30 |  | 25
